The values below come from patent publication US20240099994A1, “LONG-ACTING INJECTABLE FORMULATIONS OF KETAMINE PAMOATE SALTS” (ALAR PHARMACEUTICAL INC., priority 2019, published 2024).

Structures can show the parent of a compound that is named as a salt. Where two headings read alike, the source gives them in different places.

The nature of series [1]: Intrinsic dissolution rate, rotating disk method (USP Chapter 1087). The class given is physicochemical. The note with it: for Intrinsic dissolution rate: 50 rpm, average of three samples; for BCS solubility classification: pH 7.4 medium. As for the experimental part:
The intrinsic dissolution rate of the crystal and amorphous forms of ketamine pamoate salts was determined by using the intrinsic dissolution rotating disk method described in Chapter 1087 of the U.S. Pharmacopeia under the conditions of medium pH as 1.2, 4.5, 6.8 or 7.4, medium volume as 900 mL, rotating speed as 50 rpm, medium temperature as 37° C., and detection wavelength as 210 nm. The results were shown in Tables 7 and 8 and FIGS. 27 to 29.

Series [2] is described as follows: Solubility test (USP guidance) in different pH media.
The conditions of series [3]: in water; cited from earlier work.
In the next series the test system is ICR mice. The series can be described thus: Sedation behavior by rodent sedation rating scale. The class given is in vivo. The following applies: SC, 120 mg/kg ketamine free-base; for Sedation behavior (rodent sedation rating scale): immediately post administration to 28 days. As for the experimental part:
(§1) FIG. 43 is a diagram illustrating the protocol of dexamethasone (DEX)-induced depression-like animal model to evaluate the antidepressant effects of ketamine HCl (KET), R, S-ketamine pamoate salt (KEP), S-ketamine pamoate salt (S-KEP), and R-ketamine pamoate salt (R-KEP). ICR mice were intraperitoneally injected with saline or DEX at postnatal day 1 to 3 (P1 to P3) with dose decrement of 0.5 mg/kg, 0.3 mg/kg, and 0.1 mg/kg, respectively. The drugs for each group or saline group were administered subcutaneously at day 35 (P35, i.e., dosing day 0, D0), and the forced swimming test (FST) were conducted every 10 days from dosing day 1 (D1, P36) to P98. Evaluation of sedation behavior was also conducted by sedation rating scale from the time immediately post injection to dosing day 28 after drug administration.
Furthermore, sedation behavior was also evaluated by rodent sedation rating scale (Table 28) immediately post drug administration to 28 days in this study.

Series [4] deals with DEX-induced depression-like animal model. The series can be described thus: Forced swimming test (FST) in dexamethasone (DEX)-induced depression-like animal model. The class given is in vivo, ICR mice. The note with it: DEX-treated mice, SC, 120 mg/kg ketamine free-base; for Immobility time on FST: 1 day after administration. As for the experimental part: as §1
Depression-like animal model induced by dexamethasone (hereinafter abbreviated as DEX) was used to evaluate the antidepressant effects of ketamine HCl (KET), R, S-ketamine pamoate salt (KEP), S-ketamine pamoate salt (S-KEP), and R-ketamine pamoate salt (R-KEP) at equivalent dose (120 mg/kg ketamine free-base). According to literature, depressive-like behaviors were observed on juvenile mice and adult mice which neonatally exposed to DEX. Protocol of this example was shown in FIG. 43 and described in detail below.
Neonatal ICR mice were intraperitoneally injected with saline or DEX on postnatal day 1, 2, and 3 (P1 to P3) at doses of 0.5 mg/kg, 0.3 mg/kg, and 0.1 mg/kg, respectively. The mice received saline were called as Control group, and the mice received DEX were divided into the groups of KET, KEP, S-KEP, R-KEP and Saline (n=10 to 14 mice in each group). The mice of KET, KEP, S-KEP, and R-KEP groups were subcutaneously injected with KET formulation, the formulation AS04 comprising KEP, the formulation AS06 comprising S-KEP, and the formulation AS07 comprising R-KEP at postnatal day 35, respectively. The KET formulation was 20% (w/w) ketamine HCl dissolved in 0.9% saline. The formulations AS04, AS06 and AS07 were prepared in Example 18. Saline group mice were subcutaneously injected with equal volumes of 0.9% saline.
Antidepressant effects were evaluated by forced swimming test (FST), which performed about every 10 days from the first day (P36) to the 63rd day (P98) after drug administration. All groups of mice were trained for swimming before drug administration. During the FST, mice were individually placed into 5 L glass cylinders (height 27 cm, diameter 18 cm) filled with 4 L of water (23±1° C.). The total duration of immobility time during 5 minutes of FST was observed. Results were presented as mean±SEM. Student's t-test was analyzed with the Saline group (DEX-treated mouse group injected with saline) versus the other groups at each time point. *p<0.05, **p<0.01, ***p<0.001, and ****p<0.0001 indicate significant differences compared to the Saline group.

[5] abbreviates: pH 7.4, 1% polysorbate 20 in medium, 37° C.
The mark [6] stands for this setting: pH 4.5, 1% polysorbate 20 in medium, 37° C.
[7] abbreviates: pH 6.8, 1% polysorbate 20 in medium, 37° C.

In series [1] (setting [5]), `CNC1(c2ccccc2Cl)CCCCC1=O.CNC1(c2ccccc2Cl)CCCCC1=O.O=C(O)c1cc2ccccc2c(Cc2c(O)c(C(=O)O)cc3ccccc23)c1O` [R,S-ketamine pamoate salt (Amorphous, ratio 2:1)] [R, S-ketamine pamoate salt] returned an Intrinsic dissolution rate of 0.024 mg/min/cm^2. Besides, the BCS solubility classification result in series [1] is listed as “Low”. The Solubility (usually the dissolved amount per volume that the medium holds) in series [2] (pH 1.2 medium, listed as R,S-ketamine pamoate salt (Ratio 2:1) Amorphous) was determined as 1310 µg/mL; in series [2] (pH 4.5 medium, listed as R,S-ketamine pamoate salt (Ratio 2:1) Amorphous), 870 µg/mL; in series [2] (pH 6.8 medium) it was 160 µg/mL; in series [2] (pH 7.4 medium, listed as R,S-ketamine pamoate salt (Ratio 2:1) Amorphous), 180 µg/mL.
As to `CNC1(c2ccccc2Cl)CCCCC1=O` (stereo not drawn) [R,S-ketamine HCl, R, S-ketamine hydrochloride, reference compound], the Intrinsic dissolution rate in series [1] (pH 1.2, 37° C.) turned out to be 5.329 mg/min/cm^2; in series [1] (setting [6]), 3.729 mg/min/cm^2; in series [1] (setting [7]), 2.918 mg/min/cm^2; in series [1] (setting [5]), 1.740 mg/min/cm^2. In addition, the Solubility in series [3] was over 200000 µg/mL. Moreover, in the series with ICR mice, the “Time to full recovery from sedation-related behavior post administration” value stood at 2 h. For the same molecule, in the series on ICR mice, the “Sedation behavior (rodent sedation rating scale)” value is on record as “mild sedation-related behavior”. Besides, the “Antidepressant effects on FST after single injection” value (“Antidepressant effects on FST” below) in series [4] is on record as “rapid-onset antidepressant effects”. In series [4], the “Immobility time on FST” value is listed as “reduced the immobility time”.
Turning to `CN[C@@]1(c2ccccc2Cl)CCCCC1=O` [R-ketamine pamoate salt (Crystal, ratio 2:1)], in series [1] (setting [5]), the Intrinsic dissolution rate is 0.025 mg/min/cm^2. Also, the BCS solubility classification result in series [1] is reported as “Low”. Moreover, the “Sedation or other ketamine-related psychotomimetic effects and nervous system disorders post administration” value in the series on ICR mice is “would not occur”. In addition, the Solubility in series [2] (pH 1.2 medium, listed as R-ketamine pamoate salt (Ratio 2:1) Crystal) is 1090 µg/mL; in series [2] (pH 4.5 medium, listed as R-ketamine pamoate salt (Ratio 2:1) Crystal) it was 1180 µg/mL; in series [2] (pH 6.8 medium, listed as R-ketamine pamoate salt (Ratio 2:1) Crystal), 400 µg/mL; in series [2] (pH 7.4 medium, listed as R-ketamine pamoate salt (Ratio 2:1) Crystal), 510 µg/mL. Moreover, the “Antidepressant effects on FST” value in series [4] is listed as “rapid-onset antidepressant effects”.
Take `CNC1(c2ccccc2Cl)CCCCC1=O.CNC1(c2ccccc2Cl)CCCCC1=O.O=C(O)c1cc2ccccc2c(Cc2c(O)c(C(=O)O)cc3ccccc23)c1O` [R,S-ketamine pamoate salt (Crystal, ratio 2:1)] [R, S-ketamine pamoate salt]: the Intrinsic dissolution rate is recorded as 0.095 mg/min/cm^2 in series [1] (pH 1.2, 37° C.); 0.005 mg/min/cm^2 in series [1] (setting [6]); 0.011 mg/min/cm^2 in series [1] (setting [7]); 0.012 mg/min/cm^2 in series [1] (setting [5]). For the same molecule, in the series with ICR mice, the “Sedation or other ketamine-related psychotomimetic effects and nervous system disorders post administration” value is “would not occur”. Besides, in the series on ICR mice, the “Sedation behavior (rodent sedation rating scale)” value is listed as “normal behavior”. Further, the Solubility in series [2] (pH 1.2 medium, listed as R, S-ketamine pamoate salt) was 1680 µg/mL; in series [2] (pH 4.5 medium, listed as R,S-ketamine pamoate salt (Ratio 2:1) Crystal) it was 1080 µg/mL; in series [2] (pH 6.8 medium) it was 160 µg/mL; in series [2] (pH 7.4 medium, listed as R,S-ketamine pamoate salt (Ratio 2:1) Crystal) it was 220 µg/mL. In addition, in series [4], the “Antidepressant effects on FST” value is recorded as “rapid-onset antidepressant effects”. Also, the “Immobility time on FST” value in series [4] was “reduced the immobility time”.
On to `CN[C@]1(c2ccccc2Cl)CCCCC1=O.Cl` [S-ketamine HCl, S-ketamine hydrochloride, reference compound], for which the Intrinsic dissolution rate in series [1] (setting [5]) is 2.248 mg/min/cm^2. In addition, the BCS solubility classification entry in series [1] is given as “High”.
For `CN[C@]1(c2ccccc2Cl)CCCCC1=O` [S-ketamine pamoate salt (Crystal, ratio 2:1)], the Intrinsic dissolution rate in series [1] (setting [5]) is 0.027 mg/min/cm^2. Also, the BCS solubility classification result in series [1] is recorded as “Low”. Also, the “Sedation or other ketamine-related psychotomimetic effects and nervous system disorders post administration” value in the series on ICR mice is “would not occur”. Further, the Solubility in series [2] (pH 1.2 medium, listed as S-ketamine pamoate salt (Ratio 2:1) Crystal) was found to be 1240 µg/mL; in series [2] (pH 4.5 medium, listed as S-ketamine pamoate salt (Ratio 2:1) Crystal) it was 1610 µg/mL; in series [2] (pH 6.8 medium, listed as S-ketamine pamoate salt (Ratio 2:1) Crystal), 390 µg/mL; in series [2] (pH 7.4 medium, listed as S-ketamine pamoate salt (Ratio 2:1) Crystal), 500 µg/mL. Further, the “Antidepressant effects on FST” value in series [4] is on record as “rapid-onset antidepressant effects”.
Turning to `CN[C@@]1(c2ccccc2Cl)CCCCC1=O` [R-ketamine pamoate salt (Amorphous, ratio 2:1)], the Intrinsic dissolution rate in series [1] (setting [5]) is given as 0.021 mg/min/cm^2. In addition, the BCS solubility classification result in series [1] was “Low”. Further, the Solubility in series [2] (pH 1.2 medium, listed as R-ketamine pamoate salt (Ratio 2:1) Amorphous) stood at 1150 µg/mL; in series [2] (pH 4.5 medium, listed as R-ketamine pamoate salt (Ratio 2:1) Amorphous), 990 µg/mL; in series [2] (pH 6.8 medium, listed as R-ketamine pamoate salt (Ratio 2:1) Amorphous), 640 µg/mL; in series [2] (pH 7.4 medium, listed as R-ketamine pamoate salt (Ratio 2:1) Amorphous) it was 950 µg/mL.
As to `CNC1(c2ccccc2Cl)CCCCC1=O.O=C(O)c1cc2ccccc2c(Cc2c(O)c(C(=O)O)cc3ccccc23)c1O` [R- or S-ketamine pamoate salt], the Solubility in series [2] (pH 1.2 medium) was found to be 720 µg/mL; in series [2] (pH 4.5 medium), 450 µg/mL; in series [2] (pH 6.8 medium) it was 70 µg/mL; in series [2] (pH 7.4 medium) it was 80 µg/mL.
`CNC1(c2ccccc2Cl)CCCCC1=O.Cl` (stereo not drawn) [R-ketamine HCl, R-ketamine hydrochloride, reference compound] showed an Intrinsic dissolution rate in series [1] (setting [5]) of 2.356 mg/min/cm^2. The BCS solubility classification result in series [1] is “High”.
`CN[C@]1(c2ccccc2Cl)CCCCC1=O` [S-ketamine pamoate salt (Amorphous, ratio 2:1)] had an Intrinsic dissolution rate in series [1] (setting [5]) of 0.026 mg/min/cm^2. Moreover, the BCS solubility classification entry in series [1] was “Low”. Further, the Solubility in series [2] (pH 1.2 medium, listed as S-ketamine pamoate salt (Ratio 2:1) Amorphous) stood at 1000 µg/mL; in series [2] (pH 4.5 medium, listed as S-ketamine pamoate salt (Ratio 2:1) Amorphous), 840 µg/mL; in series [2] (pH 6.8 medium, listed as S-ketamine pamoate salt (Ratio 2:1) Amorphous) it was 480 µg/mL; in series [2] (pH 7.4 medium, listed as S-ketamine pamoate salt (Ratio 2:1) Amorphous), 580 µg/mL.
